{"source": "paper PMC11638627", "about": "(Current Research in Microbial Sciences, 2024)", "test_system": "chitin deacetylase (CDA)", "assay": "p-nitroaniline release, absorbance at […] nm", "format": "biochemical, Aneurinibacillus aneurinilyticus", "settings": "50 mM phosphate buffer pH 7.4, 37 °C; partially purified enzyme with two bands"}
{"smiles": "CC(=O)Nc1ccc([N+](=O)[O-])cc1", "note": "[p-nitroacetanilide]", "values": [{"measurement": "Km", "value": 98.5, "unit": "µM"}]}
